Values of other authors as cited in patent US10966960B2 (Treeway TW001 B.V., priority 2017, dated 2021).
In brackets after ≈: the same amount, converted by molar mass.

Settings: 25° C.

solubility in water: ~1850 µg/mL (≈ 10.6 mM)
SMILES: CC1=NN(c2ccccc2)C(=O)C1 [edaravone, 3-methyl-1-phenyl-2-pyrazolin-5-one]
